According to ChEMBL document CHEMBL1147124, “Antigiardial activity of triterpenoids from root bark of Hippocratea excelsa” (J Nat Prod, 2007):

Tested on: Giardia intestinalis
Experiment: Antiprotozoal activity against Giardia intestinalis IMSS:0696:1 trophozoites after 48 hrs
Type: functional, organism-based
Settings: Giardia duodenalis

CC1=C(O)C(=O)C=C2C1=CC=C1[C@@]2(C)CC[C@@]2(C)[C@@H]3C[C@@H](C)C(=O)C[C@]3(C)CC[C@]12C [TINGENONE]
IC50: 0.74 µM

COC(=O)/C=C1\C(C(C)=O)=CC=C2[C@]3(C)CC[C@@]4(C)CC[C@@](C)(C(=O)OC)CC4[C@@]3(C)CC[C@]21C (stereo partly specified) [DZUNUNCANONE]
IC50: 22.4 µM

CC1(C)C[C@H]2C3=CC[C@@H]4[C@@]5(C)CCC(=O)C(C)(C)[C@@H]5CC[C@@]4(C)[C@]3(C)CC[C@@]2(C)C[C@@H]1O
IC50: 27.4 µM

COC(=O)[C@]1(C)CC[C@]2(C)CC[C@]3(C)C4=CC=C5C(=CC(=O)C(O)=C5C)[C@]4(C)CC[C@@]3(C)[C@@H]2C1 [PRISTIMERIN]
IC50: 0.11 µM

COC(=O)[C@]1(C)CC[C@]2(C)CC[C@]3(C)C4=CC=C5C(=CC(=O)[C@]6(O)Oc7cc8c(cc7O[C@]56C)C(=O)C=C5[C@@]8(C)CC[C@@]6(C)[C@@H]7C[C@](C)(C(=O)OC)CC[C@]7(C)CC[C@]56C)[C@]4(C)CC[C@@]3(C)[C@@H]2C1 [XUXARINE EBETA]
IC50: 11.3 µM

C[C@H]1C(=O)CCC2[C@]3(C)CC[C@@]4(C)C5CC(C)(C)[C@H](O)C[C@]5(C)CC[C@]4(C)C3CC[C@@]21C (stereo partly specified)
IC50: 19.8 µM
